Results: patent EP1598418A1, “STABILISED COMPOSITION FOR FLUORIMETRIC, COLORIMETRIC OR CHEMOLUMINESCENT ASSAYS, KITS CONTAINING SAME AND PRODUCTION METHOD THEREOF” (BIOTOOLS BIOTECHNOLOGICAL & MEDICAL LABORATORIES, S.A., priority 2003, dated 2004)

Tests used:
[1] = tested on: TaqMan probes; experiment: Real-time amplification with desiccated, stabilised reaction mixture with TaqMan probes after storage (Example 2); type: biochemical, P. falciparum; details: vs fresh mixture
[2] = tested on: Molecular Beacon (MB) probe; experiment: Real-time amplification with desiccated, stabilised reaction mixture with Molecular Beacon probe after storage (Example 3); type: biochemical, P. falciparum; details: vs fresh mixture
[3] = tested on: Scorpion probes; experiment: Real-time amplification with desiccated, stabilised reaction mixture with Scorpion probes after storage (Example 4); type: biochemical, M. tuberculosis; details: conserved at T 25 °C, vs fresh mixture
[4] = tested on: Anti-digoxygenin antibodies; experiment: Colorimetric assay of stabilised proteins immobilised in modified glasses (Example 10.4); type: biochemical, P. falciparum; details: vs fresh mixture
Protocol: To test the possibility of stabilising proteins that have been previously immobilised in pre-treated glass supports, the usual format of microarray systems, two different alternatives were tested as in the previous experiment.
Approach 1. Stabilisation of supports with previously fixed protein. Anti-digoxygenin antibodies were fixed to glass supports pre-treated with aldehyde. To do so, in each support slide 1 microlitre spots were applied of the solution of each protein at a concentration of 30 ng/µl. The slides with the immobilised protein were then coated with a thin layer of each of the stabilising mixtures and then desiccated in a vacuum oven at 25°C and 50 mbar pressure.
(§1) Approach 2. Fixation to the slides of the protein pre-mixed with the stabilising mixtures. A mixture was prepared of each of the probes with the suitable volumes of the stabilising mixtures described in Table 1. Then the mixtures of protein were applied to the various slides with the fixing conditions indicated for each glass format.
(§2) To test the viability of each slide prepared, a colorimetric assay was performed with formation of precipitate products. To do so, the slides were washed for 5 minutes in PBS 1X at room temperature to eliminate the protective layer.

[5] = tested on: DTCS Quick Start Master Mix; experiment: Sequencing reaction with desiccated, stabilised mixture with fluorescent terminators after storage (Example 6); type: biochemical, human papillomavirus; details: vs fresh mixture
Protocol: To test the possibility of gelling reaction mixtures for sequencing nucleic acids the CEQ 200 Dye Terminator Cycle Sequencing (DTCS) Quick Start Kit (Beckman Coulter) was employed, which uses a PCR sequencing system in a single tube by incorporating four different fluorescent terminators. The sequencing reactions were later analysed in a CEQ 2000 XL DNA Analysis System (Beckman Coulter) capillary electrophoresis automatic sequencing system.
Reaction mixtures were prepared containing 4 microlitres of DTCS Quick Start Master Mix, 1 microlitre of universal primer M13-17 and the suitable volume of each stabilising mixture shown in Table 1.
In parallel, in order to check the evolution of the activity of the desiccated and stabilised tubes, the same plasmid was sequenced using a fresh sequencing mixture in standard conditions. Finally, the sequencing reactions were analysed in the CEQ 200XL system following the supplier's instructions.

[6] = tested on: antidigoxygenin antibody; experiment: Colorimetry assay of stabilised protein immobilised in ELISA microplates (Example 10.2); type: biochemical, HPV; details: vs fresh mixture
Protocol: To do so each dimple was incubated with 1µg of antidigoxygenin antibody (Roche).
The amplified product was incubated for 30 minutes in the dimples with the antibody immobilised. The amplified products immobilised in the plate by the union of the digoxygenin group of the amplicons and the immobilised anti-digoxygenin group were analysed by a colorimetric assay. […] The colorimetric reaction was finally analysed by measuring absorption at 415 nm.

[7] = tested on: oligonucleotides chemically modified by including biotin and/or digoxygenin groups; experiment: Amplification with desiccated biotin/digoxygenin oligonucleotides and colorimetric ELISA plate assay (Example 7); type: biochemical, oncogenic HPV; details: vs fresh mixture
Protocol: To do so, 4 oligonucleotides were designed that hybridised with the genome of region E6-E7 of oncogenic HPV species.
To do so, an ELISA microplate with a high-binding capacity to streptoavidin (Biospa) was activated following a standard fixing protocol. Then, after blocking the plate by incubation with gelatine, the amplified products of the stabilising mixtures 1, 2 and 3 described in Example 7.A were analysed by a colorimetry assay according to the following experimental process: • A.- Amplification products using an onligonucleotide marked with digoxygenin (mixture 1 in Example 7.A). The biotinated probe A11 was fixed to the plate and the amplified product was hybridised. […] The amplification product was fixed to the plate with the first biotinilate and then hybridised with the first A12 marked with digoxygenin.

[8] = tested on: streptoavidin conjugated with HRP (Str-HRP) and anti-digoxygenin conjugated with alkaline phospatase (anti-DIG-AP); experiment: Colorimetric ELISA plate activity test of desiccated, stabilised conjugates (Example 8); type: biochemical, HPV 16; details: vs fresh mixture
Protocol: In 0.2 ml amplification tubes were added 100 microlitres of a 1/250 dilution in a blocking solution of the conjugate Str-HRP (Biospa). In parallel, 0.2 ml phials were prepared in which 100 microlitres were added of a 1/250 dilution in a blocking solution of anti-DIG-AP (Sigma).
For the activity assay of the conjugate anti-DIG-AP an ELISA plate was used in which the dimples had been previously coated with streptoavidin. For the activity assay of conjugate Str-HRP a plate was used instead with dimples previously coated with anti-DIG antibodies. The amplified products were incubated in each plate to allow the immobilisation of the amplicons in the plate.

[9] = tested on: nucleic acids immobilised in ELISA microplates; experiment: Amplification and colorimetric detection with stabilised nucleic acids immobilised in ELISA microplates (Example 10.1); details: vs fresh mixture
[10] = tested on: FRET probes; experiment: Real-time amplification with desiccated, stabilised reaction mixture with FRET probes after storage (Example 1); type: biochemical, P. falciparum; details: vs fresh mixture
[11] = tested on: nucleic acids immobilised in modified glasses; experiment: Colorimetric assay of stabilised nucleic acids immobilised in modified glasses (Example 10.3); type: biochemical, HPV 16; details: vs fresh mixture
Protocol: Approach 1. Stabilisation of supports with previously fixed nucleic acids. HPV specific probes were fixed to glass supports pre-treated with polylysiun, aldehyde, epoxy, superepoxy and silane. To do so, in each support slide 1 microlitre spots were applied of the solution of each oligonucleotide at a concentration of 20 µM in the conditions indicated for each glass format. The slides with the immobilised oligonucleotides were then coated with a thin layer of each of the stabilising mixtures and then desiccated in a vacuum oven at 25°C and 50 mbar pressure.
as §1, with “the nucleic acids” for “the protein”, “of oligonucleotides” for “of protein”
as §2, with “layer. Then the slides were incubated in the presence of an amplified and previously denatured HPV 16 product using the probes A11 and A12.” for “layer.”

[12] = tested on: reaction mixture with SYBR Green; experiment: Real-time amplification with desiccated, stabilised reaction mixture with SYBR Green after storage (Example 5); type: biochemical, oncogenic papillomaviruses; details: conserved at T 25 °C, vs fresh mixture
Protocol: To test the efficiency of intercalated fluorophores such as SYBR Green included in desiccated and stabilised reaction mixtures, reaction mixtures were prepared for amplifying a 250 bp fragment corresponding to region E6-E7 of oncogenic papillomaviruses, using the same reagents as described in Example 1. In this case the unit "DNA Engine OPTICON™ 2 System" (MJ Research) was used. […] Also to each phial was added […] of SYBR Green 1 (Molecular probes).
Various tubes were prepared as described above, adding to each the suitable volume of each stabilising mixture shown in Table 1.
In parallel, in order to check the evolution of the activity of the desiccated tubes, DNA samples were amplified using a fresh mixture in the same amplification conditions.
The result of the amplification reaction was analysed in every case by inspecting the fluorescence curve and determining the crossing point, following the instructions of the equipment software, for each reaction tube both fresh and desiccated and stabilised. […] The samples of patients infected with oncogenic HPV gave positive results in every case, while patients infected with non-oncogenic HPV, or not infected with HPV, gave negative results in every case.

[13] = tested on: probes marked with biotin or digoxygenin groups; experiment: Synthesis of digoxygenin-marked probes with desiccated mixtures and molecular hybridisation test (Example 9); details: vs fresh mixture

| Structure (SMILES) | activity of stabilising mixtures ([1]; conserved at T 4 °C) | activity of stabilising mixtures ([2]; conserved at T 4 °C) | activity of stabilising mixtures ([4]; conserved at T 4 °C) | activity of stabilising mixtures ([5]; conserved at T 4 °C) | activity of stabilising mixtures ([6]; conserved at T 4 °C) | activity of stabilising mixtures ([7]; conserved at T 4 °C) | activity of stabilising mixtures ([9]; conserved at T 4 °C) | activity of stabilising mixtures ([10]; conserved at T 4 °C) | activity of stabilising mixtures ([11]; conserved at T 4 °C) | activity of stabilising mixtures ([13]; conserved at T 4 °C) | activity of stabilising mixtures ([8]; conserved at T 4 °C) | further results |
| --- | --- | --- | --- | --- | --- | --- | --- | --- | --- | --- | --- | --- |
| OC[C@H]1O[C@H](O[C@H]2O[C@H](CO)[C@@H](O)[C@H](O)[C@H]2O)[C@H](O)[C@@H](O)[C@@H]1O [Trehalose] | ++ (++, positive with 50-90% of the activity of the fresh mixture) | ++ (++, positive with 50-90% of the activity of the fresh mixture) | ++ (++, positive with 50-90% of the activity of the fresh mixture) | ++ (++, positive with 50-90% of the activity of the fresh mixture) | ++ (++, positive with 50-90% of the activity of the fresh mixture) | ++ (++, positive with 50-90% of the activity of the fresh mixture) | ++ (++, positive with 50-90% of the activity of the fresh mixture) | ++ (++, positive with 50-90% of the activity of the fresh mixture) | ++ (++, positive with 50-90% of the activity of the fresh mixture) | ++ (++, positive with 50-90% of the activity of the fresh mixture) | – | activity of stabilising mixtures ([1]; conserved at T 25 °C): + (+, weak positive, under 50% of the activity of the fresh mixture); activity of stabilising mixtures ([2]; conserved at T 25 °C): + (+, weak positive, under 50% of the activity of the fresh mixture); activity of stabilising mixtures [3]: + (+, weak positive, under 50% of the activity of the fresh mixture); activity of stabilising mixtures ([4]; conserved at T 25 °C): + (+, weak positive, under 50% of the activity of the fresh mixture); activity of stabilising mixtures ([5]; conserved at T 25 °C): + (+, weak positive, under 50% of the activity of the fresh mixture); activity of stabilising mixtures ([6]; conserved at T 25 °C): + (+, weak positive, under 50% of the activity of the fresh mixture); activity of stabilising mixtures ([7]; conserved at T 25 °C): + (+, weak positive, under 50% of the activity of the fresh mixture); activity of stabilising mixtures ([8]; conserved at T 25 °C): + (+, weak positive, under 50% of the activity of the fresh mixture); activity of stabilising mixtures ([9]; conserved at T 25 °C): + (+, weak positive, under 50% of the activity of the fresh mixture); activity of stabilising mixtures ([10]; conserved at T 25 °C): + (+, weak positive, under 50% of the activity of the fresh mixture); activity of stabilising mixtures ([11]; conserved at T 25 °C): + (+, weak positive, under 50% of the activity of the fresh mixture); activity of stabilising mixtures [12]: + (+, weak positive, under 50% of the activity of the fresh mixture); activity of stabilising mixtures ([13]; conserved at T 25 °C): + (+, weak positive, under 50% of the activity of the fresh mixture) |
| OCC(O)CO [Glycerol] | ++ (++, positive with 50-90% of the activity of the fresh mixture) | ++ (++, positive with 50-90% of the activity of the fresh mixture) | ++ (++, positive with 50-90% of the activity of the fresh mixture) | ++ (++, positive with 50-90% of the activity of the fresh mixture) | ++ (++, positive with 50-90% of the activity of the fresh mixture) | ++ (++, positive with 50-90% of the activity of the fresh mixture) | ++ (++, positive with 50-90% of the activity of the fresh mixture) | ++ (++, positive with 50-90% of the activity of the fresh mixture) | ++ (++, positive with 50-90% of the activity of the fresh mixture) | ++ (++, positive with 50-90% of the activity of the fresh mixture) | ++ (++, positive with 50-90% of the activity of the fresh mixture) | – |
| OC[C@@H](O)[C@@H](O)[C@H](O)[C@@H](O)CO [Sorbitol] | ++ (++, positive with 50-90% of the activity of the fresh mixture) | ++ (++, positive with 50-90% of the activity of the fresh mixture) | ++ (++, positive with 50-90% of the activity of the fresh mixture) | ++ (++, positive with 50-90% of the activity of the fresh mixture) | ++ (++, positive with 50-90% of the activity of the fresh mixture) | ++ (++, positive with 50-90% of the activity of the fresh mixture) | ++ (++, positive with 50-90% of the activity of the fresh mixture) | ++ (++, positive with 50-90% of the activity of the fresh mixture) | ++ (++, positive with 50-90% of the activity of the fresh mixture) | ++ (++, positive with 50-90% of the activity of the fresh mixture) | ++ (++, positive with 50-90% of the activity of the fresh mixture) | – |
